PMC7390954 (Frontiers in Microbiology, 2020)
≈ marks a conversion by molar mass, not a printed value. Peptide text beside a SMILES is read from it.

How the values were obtained:
[1] = system: P. aeruginosa UCBPP-PA14 wild-type; type: cell-based, Pseudomonas aeruginosa; conditions: standard twofold dilution MIC in 96-well plates
[2] = system: P. aeruginosa UCBPP-PA14 wild-type and tssK-2 mutant (1:1); type: cell-based, Pseudomonas aeruginosa
[3] = system: Pseudomonas aeruginosa UCBPP-PA14 wild-type
P. aeruginosa = conditions: cited from earlier work

Row | Compound | MIC, Without Spermidine [1] | MIC, With 4 mM Spermidine ([1]; 4 mM spermidine) | fate of tssK-2 mutant in 1:1 mixture with wild-type [2] | MIC, BM2 (H) ([3]; BM2 with high (2 mM) Mg2+, MIC = no growth after 10 h) [µg/mL] | MIC, BM2 (L) ([3]; BM2 with low (20 μM) Mg2+, 0.002% tween 80, 0.2% rhamnose, MIC = no growth after 10 h) [µg/mL] | Sub-MIC (L) ([3]; BM2 with low (20 μM) Mg2+, concentration that slowed down growth by 30% compared to untreated control) [µg/mL] | MIC90 (P. aeruginosa) [µg/mL]
1 | CC(C)CCCCC(=O)N[C@@H](CCN)C(=O)N[C@H](C(=O)N[C@@H](CCN)C(=O)N[C@H]1CCNC(=O)[C@H]([C@@H](C)O)NC(=O)[C@H](CCN)NC(=O)[C@H](CCN)NC(=O)[C@H](CC(C)C)NC(=O)[C@@H](Cc2ccccc2)NC(=O)[C@H](CCN)NC1=O)[C@@H](C)O [PMB, polymyxin B2] (HELM PEPTIDE1{[CC(C)CCCCC(=O)[*:2]].[Dab].T.[Dab].[Dab].[Dab].[dF].L.[Dab].[Dab].T}$PEPTIDE1,PEPTIDE1,5:R3-11:R2$$$V2.0) | 50 | >100 | out-competed | 0.3 (≈ 0.252 µM) | 32 (≈ 26.9 µM) | 2 | 
2 | murepavadin |  |  |  |  |  |  | 2
